Source: ChEMBL document CHEMBL1135076, “Leishmanicidal activity of some aliphatic diamines and amino-alcohols” (Bioorg Med Chem Lett, 2002)

What was measured:
Type in all cases: functional, organism-based
[1] = system: Leishmania donovani; assay: In vitro for leishmanicidal activity against Leishmania donovani (PP75) at the concentration of 100 ug/mL.
[2] = system: Leishmania donovani; assay: Tested in vitro for leishmanicidal activity against Leishmania donovani (PP75) at the concentration of 25 ug/mL;+ indicates Less than 70% lysis of parasites
[3] = system: Leishmania amazonensis; assay: Tested in vitro for leishmanicidal activity against Leishmania amazonensis (PH8) at the concentration of 50 ug/mL;++ indicates 80-90% lysis of parasites
[4] = system: Leishmania donovani; assay: Tested in vitro for leishmanicidal activity against Leishmania donovani (PP75) at the concentration of 50 ug/mL;++ indicates 80-90% lysis of parasites
[5] = system: Leishmania amazonensis; assay: In vitro for leishmanicidal activity against Leishmania amazonensis (PH8) at the concentration of 100 ug/mL.
[6] = system: Leishmania amazonensis; assay: Tested in vitro for leishmanicidal activity against Leishmania amazonensis (PH8) at the concentration of 25 ug/mL; + indicates less than 70% lysis of parasites
[7] = system: Leishmania donovani; assay: In vitro for leishmanicidal activity against Leishmania donovani (PP75) at the concentration of 10 ug/mL.
[8] = system: Leishmania braziliensis; assay: Tested in vitro for leishmanicidal activity against Leishmania brasiliensis (2903) at the concentration of 50 ug/mL;++ indicates 80-90% lysis of parasites
[9] = system: Leishmania braziliensis; assay: Tested in vitro for leishmanicidal activity against Leishmania brasiliensis (2903) at the concentration of 10 ug/mL; + indicates Less than 70% lysis of parasites
[10] = system: Leishmania braziliensis; assay: Tested in vitro for leishmanicidal activity against Leishmania brasiliensis (2903) at the concentration of 25 ug/mL; + indicates Less than 70% lysis of parasites
[11] = system: Leishmania amazonensis; assay: In vitro for leishmanicidal activity against Leishmania amazonensis (PH8) at the concentration of 10 ug/mL.
[12] = system: Leishmania braziliensis; assay: Tested in vitro for leishmanicidal activity against Leishmania brasiliensis (2903) at the concentration of 25 ug/mL; ++ indicates 80-90%lysis of parasites
[13] = system: Leishmania donovani; assay: In vitro for leishmanicidal activity against Leishmania donovani (PP75) at the concentration of 50 ug/mL.
[14] = system: Leishmania amazonensis; assay: In vitro for leishmanicidal activity against Leishmania amazonensis (PH8) at the concentration of 50 ug/mL.
[15] = system: Leishmania donovani; assay: Tested in vitro for leishmanicidal activity against Leishmania donovani (PP75) at the concentration of 25 ug/mL;++ indicates 80-90%lysis of parasites
[16] = system: Leishmania braziliensis; assay: In vitro for leishmanicidal activity against Leishmania brasiliensis (2903) at the concentration of 100 ug/mL.
[17] = system: Leishmania braziliensis; assay: Tested in vitro for leishmanicidal activity against Leishmania brasiliensis (2903) at the concentration of 10 ug/mL;+ indicates Less than 70% lysis of parasites
[18] = system: Leishmania amazonensis; assay: Tested in vitro for leishmanicidal activity against Leishmania amazonensis (PH8) at the concentration of 25 ug/mL;++ indicates 80-90% lysis of parasites
[19] = system: Leishmania braziliensis; assay: Tested in vitro for leishmanicidal activity against Leishmania brasiliensis (2903) at the concentration of 25 ug/mL;++ indicates 80-90% lysis of parasites
[20] = system: Leishmania donovani; assay: Tested in vitro for leishmanicidal activity against Leishmania donovani (PP75) at the concentration of 10 ug/mL++ indicates 80-90% lysis of parasites
[21] = system: Leishmania braziliensis; assay: Tested in vitro for leishmanicidal activity against Leishmania brasiliensis (2903) at the concentration of 10 ug/mL;++ indicates 80-90% lysis of parasites
[22] = system: Leishmania amazonensis; assay: Tested in vitro for leishmanicidal activity against Leishmania amazonensis (PH8) at the concentration of 10 ug/mL; ++ indicates 80-90% lysis of parasites
[23] = system: Leishmania braziliensis; assay: In vitro for leishmanicidal activity against Leishmania brasiliensis (2903) at the concentration of 10 ug/mL.
[24] = system: Leishmania donovani; assay: Tested in vitro for leishmanicidal activity against Leishmania donovani (PP75) at the concentration of 50 ug/mL;+ indicates Less than 70% lysis of parasites
[25] = system: Leishmania donovani; assay: Tested in vitro for leishmanicidal activity against Leishmania donovani (PP75) at the concentration of 10 ug/mL
[26] = system: Leishmania braziliensis; assay: Tested in vitro for leishmanicidal activity against Leishmania brasiliensis (2903) at the concentration of 50 ug/mL; + indicates Less than 70% lysis of parasites
[27] = system: Leishmania amazonensis; assay: Tested in vitro for leishmanicidal activity against Leishmania amazonensis (PH8) at the concentration of 50 ug/mL; + indicates less than 70% lysis of parasites
[28] = system: Leishmania donovani; assay: Tested in vitro for leishmanicidal activity against Leishmania donovani (PP75) at the concentration of 25 ug/mL;++ indicates 80-90% lysis of parasites
[29] = system: Leishmania braziliensis; assay: Tested in vitro for leishmanicidal activity against Leishmania brasiliensis (2903) at the concentration of 10 ug/mL; + indicatesLess than 70% lysis of parasites
[30] = system: Leishmania braziliensis; assay: Tested in vitro for leishmanicidal activity against Leishmania brasiliensis (2903) at the concentration of 25 ug/mL; ++ indicates 80-90% lysis of parasites
[31] = system: Leishmania amazonensis; assay: Tested in vitro for leishmanicidal activity against Leishmania amazonensis (PH8) at the concentration of 25 ug/mL; ++ indicates 80-90% lysis of parasites
[32] = system: Leishmania braziliensis; assay: Tested in vitro for leishmanicidal activity against Leishmania brasiliensis (2903) at the concentration of 10 ug/mL; ++ indicates 80-90% lysis of parasites
[33] = system: Leishmania donovani; assay: Tested in vitro for leishmanicidal activity against Leishmania donovani (PP75) at the concentration of 10 ug/mL;++ indicates 80-90% lysis of parasites
[34] = system: Leishmania donovani; assay: Tested in vitro for leishmanicidal activity against Leishmania donovani (PP75) at the concentration of 50 ug/mL;++ indicates 80-90%lysis of parasites
[35] = system: Leishmania amazonensis; assay: Tested in vitro for leishmanicidal activity against Leishmania amazonensis (PH8) at the concentration of 50 ug/mL; ++ indicates 80-90% lysis of parasites
[36] = system: Leishmania braziliensis; assay: Tested in vitro for leishmanicidal activity against Leishmania brasiliensis (2903) at the concentration of 50 ug/mL; ++ indicates 80-90%lysis of parasites

Row | Compound | Activity [1] | Activity [2] | Activity [5] | Activity [6] | Activity [7] | Activity [10] | Activity [11] | Activity [13] | Activity [14] | other results
1 | CCCCCCCCCCCCCCC(CO)NC(=O)CCCC(=O)O (stereo not drawn) | + | 80-90% lysis of parasites | + | 80-90% lysis of parasites | 80-90% lysis of parasites | 80-90% lysis of parasites | 80-90% lysis of parasites |  |  | Activity [3]: 80-90% lysis of parasites; Activity [4]: 80-90% lysis of parasites; Activity [8]: 80-90% lysis of parasites; Activity [9]: 80-90% lysis of parasites
2 | CCCCCCCCCCCCCCC(CO)N(CC)CC (stereo not drawn) | + | 80-90% lysis of parasites | + | 80-90% lysis of parasites | 80-90% lysis of parasites |  | 80-90% lysis of parasites | + | + | Activity [12]: 80-90% lysis of parasites
3 | CCCCCCCCCCCCCCC(CN(CC)CC)NC(=O)CCCC(=O)O (stereo not drawn) | + |  | + |  | 80-90% lysis of parasites |  | 80-90% lysis of parasites | + | + | Activity [15]: 80-90% lysis of parasites; Activity [16]: +; Activity [17]: 80-90% lysis of parasites; Activity [18]: 80-90% lysis of parasites; Activity [19]: 80-90% lysis of parasites
4 | CCCCCCCCCCCCCCC(N)CN(CC(=O)OCC)CC(=O)OCC (stereo not drawn) | + |  | + |  |  |  |  | + | + | Activity [20]: 80-90% lysis of parasites; Activity [21]: 80-90% lysis of parasites; Activity [22]: 80-90% lysis of parasites; Activity [16]: +
5 | CCCCCCCCCCCCCCC(CO)NCC(=O)O (stereo not drawn) | + | Less than 70% lysis of parasites | + | Less than 70% lysis of parasites |  | Less than 70% lysis of parasites | Less than 70% lysis of parasites |  |  | Activity [23]: Less than 70% lysis of parasites; Activity [24]: Less than 70% lysis of parasites; Activity [25]: Less than 70% lysis of parasites; Activity [26]: Less than 70% lysis of parasites; Activity [27]: Less than 70% lysis of parasites
6 | CCCCCCCCCCCCCCC(COCc1ccccc1)NCC (stereo not drawn) | + |  | + |  | 80-90% lysis of parasites |  | 80-90% lysis of parasites | 80-90% lysis of parasites | + | Activity [28]: 80-90% lysis of parasites; Activity [29]: 80-90% lysis of parasites; Activity [30]: 80-90% lysis of parasites; Activity [31]: 80-90% lysis of parasites
7 | CCCCCCCCCCCCCCC(CO)NCC (stereo not drawn) | + |  | + |  |  |  |  | + | + | Activity [22]: 80-90% lysis of parasites; Activity [32]: 80-90% lysis of parasites; Activity [33]: 80-90% lysis of parasites
8 | CCCCCCCCCCCCCCC(CO)NCC(=O)OCC (stereo not drawn) | + | 80-90% lysis of parasites | + | 80-90% lysis of parasites | 80-90% lysis of parasites | 80-90% lysis of parasites | 80-90% lysis of parasites |  |  | Activity [34]: 80-90% lysis of parasites; Activity [35]: 80-90% lysis of parasites; Activity [9]: 80-90% lysis of parasites; Activity [36]: 80-90% lysis of parasites
